Key:
[1] = Metabolic stability in rat microsomes, Phase II assay; type: in vitro ADME; settings: pH 7.4; rat liver microsomes 0.5 mg/mL, Alamethicin activated, UDPGA, compound 1 μM, 37° C.; read-out: Metabolic Stability (t1/2, min) Phase2
Description: Rat liver microsomes (0.5 mg/mL final conc.) were incubated in ice for 15 min in 50 mM potassium phosphate buffer pH 7.4, 3 mM MgCl2 and activated with Alamethicin 50 μg/mg microsomal protein. Samples were transferred at 37° C. and compounds 1, 2, 8 and 9, dissolved in DMSO, were added in duplicate at the final concentration of 1 μM. After 5 min, reaction is started by adding 25 μl of UDPGA (16.15 mg/ml in 0.2% Sodium Bicarbonate). Samples were taken at time 0, 10, 20, 30 and 60 min added to 150 μl of acetonitrile with Verapamil 0.02 uM as Internal Standard (IS) to stop the reaction. After centrifugation the supernatants were analysed by LC-MS/MS. 7-Hydroxycoumarin was added as reference standard.

[2] = Metabolic stability in rat microsomes, Phase I assay; type: in vitro ADME; settings: pH 7.4; rat liver microsomes 0.5 mg/ml, compound 1 μM, NADP cofactors mixture, 37° C.; read-out: Metabolic Stability (t1/2, min) Phase1
Description: Compounds 1, 2, 8 and 9 in duplicate were dissolved in DMSO and pre-incubated, at the final concentration of 1 μM, for 10 min at 37° C. in potassium phosphate buffer 50 mM pH 7.4, 3 mM MgCl2, with rat liver microsomes (Xenotech) at the final concentration of 0.5 mg/ml.
After the pre-incubation period, reactions were started by adding the cofactors mixture (NADP, Glc6P, Glc6P-DH in 2% Sodium bicarbonte); samples (50 μl) were taken at time 0, 10, 20, 30 and 60 min added to 150 μl of acetonitrile with Verapamil 0.02 μM as Internal Standard (IS) to stop the reaction. After centrifugation the supernatants were analysed by LC-MS/MS.
A control sample without cofactors was added in order to check the stability of test compounds in the matrix after 60 min. 7-Ethoxycoumarin and propranolol were added as reference standards.

human TRPM8 [3] = molecular target: T1, human TRPM8 (Homo sapiens, UniProt Q7Z2W7); assay: In vitro cold stimulation assay
Description: The TRPM8 antagonisticic activity of all 26 compounds was determined in an in vitro cold stimulation assay.
3-4 days after seeding (˜80% confluent cells), the medium was removed and cells were loaded by a solution of Screen Quest™ Fluo-8 NW dye (ABS Bioquest, Sunnyvale, Calif., USA) in the dark. Dye-loaded cell flasks were incubated for 45 minutes at room temperature in the dark and the Fluo-8 NW solution was then removed and cells were seeded in the 96 Assay Plates (MicroAmp™ Optical 96-Well Reaction Plates; Applied Biosystems, Life technologies) at 100,000 cells/'well (20 μl/well). […] All data point determinations were performed in duplicate before a mean value was calculated, including error bars representing the standard error of the mean.

human TRPM8 [4] = molecular target: T1, human TRPM8; assay: In vitro TRPM8 assay: intracellular calcium levels, Ca2+ sensitive fluorescent dye (FLIPR), agonist Icilin or Cooling Agent 10; type: cell-based; design: expressed in transfected cells; settings: HEK-293 cells stably expressing human TRPM8
Description: The TRPM8 antagonistic activity of all 26 compounds was determined by measuring changes in intracellular calcium levels using a Ca^+2 sensitive fluorescent dye. The experiments were performed using HEK-293 cells stably expressing the human TRPM8. Cells were seeded 10000 cells/well in 384 plates coated by Poly-D-Lysine MATRIX black/clear bottom (Thermo Scientific, Waltham, Mass. USA) in complete medium and grown overnight at 37° C., 5% CO2. 24 h after seeding, cell culture media was removed, cells were washed with Tyrode's assay buffer and then loaded with the fluorescent Ca^+2 indicator Fluo-4 NW dye (Molecular Probes, Life Technologies, Paisley, UK) supplemented with water-soluble Probenecid (Molecular Probes). Dye loaded cell plates were incubated for 1 h at room temperature. The compounds or vehicle were added and the kinetic response was monitored by a fluorimetric imaging plate ([…]; Molecular Devices, Sunnyvale, Calif., USA) over a period of five minutes (300 seconds). A second injection 5 minutes later of the reference agonist Cooling Agent 10 or Icilin at EC80 concentration was performed. The signal of the emitted fluorescence was recorded during additional three minutes. Data were analyzed by Spotfire DecisionSite version 9.1.1. The bioactivity exerted by the compounds or vehicle was expressed as a percent inhibition and IC50 values were then calculated.

[5] = agonist Cooling Agent 10 at EC80, read-out: Ca2+ (IC50 μM) Cool 10
[6] = agonist Icilin at EC80, read-out: Ca2+ (IC50 μM) Icilin

T1 sequence (Q7Z2W7 whole entry): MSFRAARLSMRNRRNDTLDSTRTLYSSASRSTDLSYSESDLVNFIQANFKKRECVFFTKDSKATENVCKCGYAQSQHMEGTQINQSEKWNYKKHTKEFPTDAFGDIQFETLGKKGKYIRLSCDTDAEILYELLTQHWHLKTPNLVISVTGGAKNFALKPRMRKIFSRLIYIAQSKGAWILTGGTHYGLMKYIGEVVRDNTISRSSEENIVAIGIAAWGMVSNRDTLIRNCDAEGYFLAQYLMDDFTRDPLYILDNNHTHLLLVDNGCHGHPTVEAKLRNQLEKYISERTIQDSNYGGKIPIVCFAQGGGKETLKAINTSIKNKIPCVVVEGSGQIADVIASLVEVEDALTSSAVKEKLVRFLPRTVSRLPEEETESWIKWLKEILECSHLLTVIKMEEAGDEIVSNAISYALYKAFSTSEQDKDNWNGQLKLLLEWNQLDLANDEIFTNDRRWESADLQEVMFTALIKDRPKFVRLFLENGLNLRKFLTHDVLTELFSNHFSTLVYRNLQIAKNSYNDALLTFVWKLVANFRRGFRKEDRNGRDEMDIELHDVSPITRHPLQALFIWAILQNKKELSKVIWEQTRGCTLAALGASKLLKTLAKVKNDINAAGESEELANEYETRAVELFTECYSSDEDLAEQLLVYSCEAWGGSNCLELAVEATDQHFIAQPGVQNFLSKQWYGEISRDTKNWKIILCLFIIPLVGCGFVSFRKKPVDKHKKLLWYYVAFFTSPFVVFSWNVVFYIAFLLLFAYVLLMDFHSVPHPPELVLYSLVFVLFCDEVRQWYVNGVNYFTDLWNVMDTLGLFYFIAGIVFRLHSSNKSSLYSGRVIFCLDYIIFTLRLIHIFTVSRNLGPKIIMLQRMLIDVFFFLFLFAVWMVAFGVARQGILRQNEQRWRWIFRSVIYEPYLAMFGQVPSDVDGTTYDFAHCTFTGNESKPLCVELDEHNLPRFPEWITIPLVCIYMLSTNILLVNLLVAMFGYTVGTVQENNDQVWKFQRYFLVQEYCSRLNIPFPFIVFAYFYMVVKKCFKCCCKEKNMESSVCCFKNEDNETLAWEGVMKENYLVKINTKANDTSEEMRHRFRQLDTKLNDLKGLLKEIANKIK

Row | Compound | half-life at 1 μM [1] [min] | half-life at 1 μM [2] [min] | IC50 (human TRPM8 [3]) [nM] | IC50 (human TRPM8 [4]; [5]) [µM] | IC50 (human TRPM8 [4]; [6]) [µM]
1 | O=C(c1sc(-c2cccc(F)c2)nc1O)N1CCCCCO1 [Example 27, [2-(3-fluorophenyl)-4-hydroxy-1,3-thiazol-5-yl](1,2-oxazepan-2-yl)methanone] | 63 | 75 | 46 | 0.121 | 0.143
2 | O=C(c1sc(-c2cccc(F)c2)nc1O)N1CC2(CC2)CO1 [Example 28, [2-(3-fluorophenyl)-4-hydroxy-1,3-thiazol-5-yl](5-oxa-6-azaspiro[2.4]heptan-6-yl) methanone] | 61 | 73 | 54 | 0.086 | 0.143
3 | CC1CCN(C(=O)c2sc(-c3cccc(F)c3)nc2O)O1 (stereo not drawn) [Example 29, [2-(3-fluorophenyl)-4-hydroxy-1,3-thiazol-5-yl](5-methyl-1,2-oxazolidin-2-yl) methanone] | 78 | 91 | 31 | 0.091 | 0.111
4 | O=C(c1sc(-c2cccc(F)c2)nc1O)N1CC2CCCC2O1 (stereo not drawn) [Example 30, [2-(3-fluorophenyl)-4-hydroxy-1,3-thiazol-5-yl](hexahydro-2H-cyclopenta[d][1,2]oxazol-2-yl)methanone] | 85 | 82 | 69 | 0.084 | 0.087
5 | O=C(c1sc(-c2cccc(F)c2)nc1O)n1ccnn1 [Example 31, [2-(3-fluorophenyl)-4-hydroxy-1,3-thiazol-5-yl](1H-1,2,3-triazol-1-yl)methanone] | 67 | 85 | 50 | 0.94 | 0.082
6 | Cn1nnnc1C(=O)c1sc(-c2cccc(F)c2)nc1O [Example 32, [2-(3-fluorophenyl)-4-hydroxy-1,3-thiazol-5-yl](1-methyl-1H-tetrazol-5-yl)methanone] | 69 | 81 | 63 | 0.098 | 0.101

Now from value to compound:

Row | half-life at 1 μM [1] [min] | half-life at 1 μM [2] [min] | IC50 (human TRPM8 [3]) [nM] | IC50 (human TRPM8 [4]; [5]) [µM] | IC50 (human TRPM8 [4]; [6]) [µM] | Compound
7 | 48 | 40 | 525 | 0.601 | 0.624 | O=C(c1ccncc1)c1sc(-c2cccc(F)c2)nc1O [Example 24, [2-(3-fluorophenyl)-4-hydroxy-1,3-thiazol-5-yl](pyridin-4-yl)methanone]
8 | 40 | 45 | 972 | 1.25 | 1.25 | O=C(c1sc(-c2cccc(F)c2)nc1O)n1ccnc1 [Example 25, [2-(3-fluorophenyl)-4-hydroxy-1,3-thiazol-5-yl](1H-imidazol-1-yl)methanone]
9 | 86 | 89 | 1320 | 1.65 | 1.32 | O=C(c1sc(-c2cccc(F)c2)nc1O)n1cccn1 [Example 26, [2-(3-fluorophenyl)-4-hydroxy-1,3-thiazol-5-yl](1H-pyrazol-1-yl)methanone]

— patent US10246448B2, “4-hydroxy-2-phenyl-1,3-thiazol-5-yl methanone derivatives as TRPM8 antagonists” (DOMPÉ FARMACEUTICI S.P.A., priority 2015, dated 2019)
